We go through nine compounds from patent publication US20250214990A1, “DIACYLGLYCEROL KINASE (DGK) ALPHA INHIBITORS AND USES THEREOF” (Insilico Medicine IP Limited, priority 2022, published 2025).

Data set [1] concerns the target T1, DGKA (Homo sapiens, UniProt P23743).
T1 construct: purchased SignalChem D21-10BG
The data set can be described thus: DGKA Inhibition ADP-Glo Assay. The conditions noted are these: 40 μM ATP. The class given is biochemical. The procedure:
The DGKA inhibition reactions were performed using ADP-Glo assay. The reactions were carried out in 50 mM HEPES, 100 mM NaCl, 10 mM MgCl2, 1 mM CaCl2, 0.005% TritonX-100 and 1 mM DTT as working solution (pH=7.5). 30 nL DMSO solution of each test compound (Top concentration […] with 10 point, 4-fold dilution series for each compound) were transferred to 384 well plate by Echo and 5 μL DGKA (SignalChem, D21-10BG) enzyme working solution at 2× final reaction concentration was added to each well. After incubated at 25° C. for 15 minutes, 5 μL substrate working solution contain 40 μM ATP (Promega, V915B) and 200 µM DLG (SignalChem, D430-59) were added to initiate reaction. After enzymatic reaction at 25° C. for 60 min, ADP Glo assay reagents (Promega, V9102) were added and luminescence was recorded using an EnVision following the instruction of manual. […] The IC50 value was calculated via a regression analysis of the inhibition rate.

The subject of data set [2] is Human Pan T cells. Put plainly: IL-2 Release Detection Assay. The class given is cell-based. The conditions noted are these: T-cell; for EC50: IL-2 in supernatant by ELISA, anti-CD3 pre-coated plate, 24 hours; for maximal fold induction: Top activation/DMSO control; for activity at 0.1 µM: curve value at 100 nM/DMSO control*100%, read-out: Activation % at 100 nM. How it is done:
Isolate Human Pan T cells from PBMC according to T cell isolation kit (Stemcell, 17951). The suspend T cell in RPMI 1640 medium containing 10% FBS, 1% PS and 55 µM β-Mer at a density of 3*10^6 cells/well/3 ml are seeded into 6 well plate, recovered overnight at 37° C.&[…]. Harvest overnight recovered T cells are suspended in fresh RPMI1640 medium containing 10% FBS, 1% PS and 55 μM f-Mer, seeded 1*10^5/well/200 μl cells into the anti-CD3 pre-coated 96 well plate. Add dilutions of compounds into the cells and incubate at 37° C.&5% CO2 for 24 hours. IL-2 in cell supernatant was detected by ELISA Kit (R&D, DY202). Fit the compound EC50 in non-linear regression equation: Y=Bottom+(Top−Bottom)/(1+10^((Log EC50−X)*HillSlope)), X=compound concentration, Y=Activation %. Top and Bottom: Plateaus in same units as Y. Log EC50: same log units as X. Activation fold: Top activation/DMSO control. Activation % at 100 nM: Activation of non-linear regression equation curve at the concentration of 100 nM/DMSO control*100%.

Data set [3] is described as follows: Mouse PK profile after oral administration. It is filed as in vivo, Male CD-1 mice. The conditions noted are these: for AUC(0-inf) / AUC(0-t) / Cmax / half-life: male, CD-1, plasma, mouse, oral, 5 mg/kg. The procedure:
Species and strain: Male CD-1 mice of SPF. Source: Sino-British SIPPR/BK Lab Animal Ltd, Shanghai. 3 mice were orally gavage administrated with given compounds (Formulation: 5% DMSO+10% Solutol+85% Saline). The blood samples were taken via cephalic vein at timepoints 0.25 h, 0.5 h, 1 h, 2 h, 4 h, 6 h, 8 h and 24 h after oral gavage administration, 30 μL/time point. Blood samples were placed in tubes containing K2-EDTA and stored on ice until centrifuged. The blood samples were centrifuged at 6800 g for 6 minutes at 2-8° C. within 1 h after collected and stored frozen at approximately −80° C. An aliquot of 10 μL plasma samples were protein precipitated with 200 μL MeOH in which contains 10 ng/mL Verapamil (IS). The mixture was vortexed for 1 min and centrifuged at 18000 g for 7 min. Transfer 180 μL supernatant to 96 well plates. An aliquot of 6 μL supernatant was injected for LC-MS/MS analysis by LC-MS/MS-04 (API4000) instrument. The analytical results were confirmed using quality control samples for intra-assay variation. The accuracy of >66.7% of the quality control samples should be between 80-120% of the known value(s). Standard set of parameters including Area Under the Curve (AUC(0-t) and AUC(0-∞)), elimination half-live (T½), maximum plasma concentration (Cmax), will be calculated using noncompartmental analysis modules in FDA certified pharmacokinetic program Phoenix WinNonlin 7.0 (Pharsight, USA).

Data set [4] can be described thus: Rat PK profile after oral administration. It is filed as in vivo, Male SD rats. The procedure:
Species and strain: Male SD rats of SPF. Source: Sino-British SIPPR/BK Lab Animal Ltd, Shanghai. 3 rats were orally gavage administrated with given compounds (Formulation: 5% DMSO+10% Solutol+85% Saline). The blood samples were taken via submandibular vein or other suitable vein at timepoints 0.25 h, 0.5 h, 1 h, 2 h, 4 h, 6 h, 8 h and 24 h after oral gavage administration, 0.15 mL/time point. Blood samples were placed in tubes containing K2-EDTA and stored on ice until centrifuged. The blood samples were centrifuged at 6800 g for 6 minutes at 2-8° C. within 1 h after collected and stored frozen at approximately −80° C. An aliquot of 30 μL plasma samples were protein precipitated with 300 μL MeOH in which contains 100 ng/mL Verapamil (IS). The mixture was vortexed for 1 min and centrifuged at 18000 g for 7 min. Transfer 300 μL supernatant to 96 well plates. An aliquot of 8 μL supernatant was injected for LC-MS/MS analysis by LC-MS/MS-12 (TQ5500) instrument. The analytical results were confirmed using quality control samples for intra-assay variation. The accuracy of >66.7% of the quality control samples should be between 80-120% of the known value(s). Standard set of parameters including Area Under the Curve (AUC(0-t) and AUC(0-∞)), elimination half-live (T1/2), maximum plasma concentration (Cmax), will be calculated using noncompartmental analysis modules in FDA certified pharmacokinetic program Phoenix WinNonlin 7.0 (Pharsight, USA).

Where [5] appears, read: male, SD, plasma, rat, oral, 5 mg/kg.

SMILES strings stand for the structures.

T1 sequence (P23743 whole entry): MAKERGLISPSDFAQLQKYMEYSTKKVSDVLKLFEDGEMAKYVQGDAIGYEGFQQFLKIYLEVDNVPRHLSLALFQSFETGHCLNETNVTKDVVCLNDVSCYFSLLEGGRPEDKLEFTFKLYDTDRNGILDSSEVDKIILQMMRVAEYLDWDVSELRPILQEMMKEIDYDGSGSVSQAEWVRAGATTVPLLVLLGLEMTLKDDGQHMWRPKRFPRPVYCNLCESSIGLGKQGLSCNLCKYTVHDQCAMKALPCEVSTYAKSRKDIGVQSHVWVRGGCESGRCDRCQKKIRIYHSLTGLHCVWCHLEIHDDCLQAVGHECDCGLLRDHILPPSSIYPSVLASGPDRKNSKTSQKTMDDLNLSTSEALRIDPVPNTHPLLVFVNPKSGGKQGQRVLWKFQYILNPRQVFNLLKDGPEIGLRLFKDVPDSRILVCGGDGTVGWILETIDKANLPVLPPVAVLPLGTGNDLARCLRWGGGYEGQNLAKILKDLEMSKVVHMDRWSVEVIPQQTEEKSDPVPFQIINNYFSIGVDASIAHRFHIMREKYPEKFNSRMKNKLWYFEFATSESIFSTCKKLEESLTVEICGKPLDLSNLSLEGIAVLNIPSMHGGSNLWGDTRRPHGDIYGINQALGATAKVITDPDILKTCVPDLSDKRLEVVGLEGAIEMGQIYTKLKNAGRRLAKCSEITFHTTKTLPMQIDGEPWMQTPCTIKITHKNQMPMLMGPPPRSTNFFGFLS

Turning to `Cn1c(=O)nc(N2CCOCc3c(C#CC4(C(F)(F)F)CC4)cccc32)c2cc(Cl)ccc21` [Example 5, 6-chloro-1-methyl-4-(6-((1-(trifluoromethyl)cyclopropyl)ethynyl)-2,3-dihydrobenzo[e][1,4]oxazepin-1(5H)-yl)quinazolin-2(1H)-one], in data set [1], the IC50 is less than 1 nM. Further, in data set [2], the EC50 is 444 nM, the maximal fold induction worked out at 7.7 and the activity at 0.1 µM was determined as 395%. In data set [3], this compound showed an AUC(0-inf) of 7110 ng·h/mL, an AUC(0-t) of 6660 ng·h/mL, a Cmax of 985 ng/mL and a half-life of 2.03 h. In addition, in data set [4] (setting [5]), the AUC(0-inf) was found to be 3760 ng·h/mL, the AUC(0-t) stood at 3470 ng·h/mL, the peak level (Cmax) was 292 ng/mL and the half-life is 6.32 h.

Compound `Cn1c(=O)nc(N2CCOCc3c(C#CC4(C(F)(F)F)CC4)cccc32)c2cc(C#N)c(OC3CCOC3)cc21` (stereo not shown) [Example 12, 1-methyl-2-oxo-7-((tetrahydrofuran-3-yl)oxy)-4-(6-((1-(trifluoromethyl)cyclopropyl)ethynyl)-2,3-dihydrobenzo[e][1,4]oxazepin-1(5H)-yl)-1,2-dihydroquinazoline-6-carbonitrile] came in with an IC50 in data set [1] of less than 1 nM. Also, in data set [2], the midpoint of the response, the EC50, lay at 1080 nM; the maximal fold induction was 14.2; the activity at 0.1 µM was found to be 311%. For the same compound, in data set [3], the AUC(0-inf) was found to be 7870 ng·h/mL, the AUC(0-t) turned out to be 7740 ng·h/mL, the Cmax was 1690 ng/mL and the half-life was 1.03 h.

Turning to `Cn1c(=O)nc(N2CCOCc3c(C#CC4(C(F)(F)F)CC4)cccc32)c2cc(Cl)c(OCCO)cc21` [Example 13, 6-chloro-7-(2-hydroxyethoxy)-1-methyl-4-(6-((1-(trifluoromethyl)cyclopropyl)ethynyl)-2,3-dihydrobenzo[e][1,4]oxazepin-1(5H)-yl)quinazolin-2(1H)-one], the concentration for half-maximal inhibition (IC50) in data set [1] was less than 1 nM. In data set [2], this compound displayed an EC50 of 131 nM and a maximal fold induction of 22.5. In data set [3], this compound had an AUC(0-inf) of 28400 ng·h/mL, an AUC(0-t) of 26200 ng·h/mL, a Cmax of 2400 ng/mL and a half-life of 6.13 h. Besides, the “T1/2, Cmax and AUC compared with compound” value in data set [3] (mouse PK evaluation, comparison in words) is “longer T1/2, much higher Cmax and AUC”. Moreover, in data set [4] (setting [5]), the AUC(0-t) came to 7520 ng·h/mL and the Cmax came out at 455 ng/mL. The “T1/2, Cmax and AUC compared with compound” value in data set [4] (rat PK evaluation, comparison in words) was “longer T1/2, much higher Cmax and AUC”.

Take `COCCOc1cc2c(cc1Cl)c(N1CCOCc3c(C#CC4(C(F)(F)F)CC4)cccc31)nc(=O)n2C` [Example 17, 6-chloro-7-(2-methoxyethoxy)-1-methyl-4-(6-((1-(trifluoromethyl)cyclopropyl)ethynyl)-2,3-dihydrobenzo[e][1,4]oxazepin-1(5H)-yl)quinazolin-2(1H)-one]: the IC50 in data set [1] is less than 1 nM. For the same compound, in data set [2], the EC50 is 1000 nM, the maximal fold induction stood at 10.2 and the activity at 0.1 µM was 202%.

`Cn1c(=O)nc(N2CCOCc3c(C#CC4(C(F)(F)F)CC4)cccc32)c2cc(Cl)c(N3CCOCC3)cc21` [Example 19, 6-chloro-1-methyl-7-morpholino-4-(6-((1-(trifluoromethyl)cyclopropyl)ethynyl)-2,3-dihydrobenzo[e][1,4]oxazepin-1(5H)-yl)quinazolin-2(1H)-one]: the IC50 in data set [1] is 1 to 10 nM. Also, in data set [2], the half-maximal effective concentration (EC50) was 2190 nM, the maximal fold induction is 25.2 and the activity at 0.1 µM was 234%.

In turn, `Cn1c(=O)nc(N2CCOCc3c(C#CC4(C(F)(F)F)CC4)cccc32)c2cc(Cl)c(OCCCN)cc21` [Example 20, 7-(3-aminopropoxy)-6-chloro-1-methyl-4-(6-((1-(trifluoromethyl)cyclopropyl)ethynyl)-2,3-dihydrobenzo[e][1,4]oxazepin-1(5H)-yl)quinazolin-2(1H)-one] returned an IC50 in data set [1] of 1 to 10 nM. Besides, in data set [2], a half-maximal effect (EC50) was put at 62.8 nM, the maximal fold induction was found to be 1.7 and the activity at 0.1 µM came out at 173%.

In data set [1], `Cn1c(=O)nc(N2CCOCc3c(C#CC4(C(F)(F)F)CC4)cccc32)c2cc(Cl)c(OC3CCOCC3)cc21` [Example 25, 6-chloro-1-methyl-7-((tetrahydro-2H-pyran-4-yl)oxy)-4-(6-((1-(trifluoromethyl)cyclopropyl)ethynyl)-2,3-dihydrobenzo[e][1,4]oxazepin-1(5H)-yl)quinazolin-2(1H)-one] showed an IC50 of less than 1 nM. Moreover, in data set [2], the EC50 stood at 243 nM, the maximal fold induction amounted to 5.4 and the activity at 0.1 µM was determined as 275%.

As for `Cn1c(=O)nc(N2CCOCc3c(C#CC4(C(F)(F)F)CC4)cccc32)c2cc(Cl)c(OCCN)cc21` [Example 32, 7-(2-aminoethoxy)-6-chloro-1-methyl-4-(6-((1-(trifluoromethyl)cyclopropyl)ethynyl)-2,3-dihydrobenzo[e][1,4]oxazepin-1(5H)-yl)quinazolin-2(1H)-one], the IC50 in data set [1] is less than 1 nM. Besides, in data set [2], the EC50 came out at 702 nM, the maximal fold induction is 33.9 and the activity at 0.1 µM amounted to 540%.

Compound `Cn1c(=O)nc(N2CCOCc3c(C#CC4(C(F)(F)F)CC4)cccc32)c2cc(C#N)c(OCCN)cc21` [Example 33, 7-(2-aminoethoxy)-1-methyl-2-oxo-4-(6-((1-(trifluoromethyl)cyclopropyl)ethynyl)-2,3-dihydrobenzo[e][1,4]oxazepin-1(5H)-yl)-1,2-dihydroquinazoline-6-carbonitrile] returned an IC50 in data set [1] of less than 1 nM. In data set [2], the EC50 was 714 nM, the maximal fold induction worked out at 38.4 and the activity at 0.1 µM turned out to be 631%.
